These results are taken from US20210386792A1, “A METHOD FOR INCREASING POPULATION OF SPERMATOGONIAL STEM CELLS” (priority 2018, published 2021).

For one experiment, the system named is LuECs. Kind of experiment: GDNF ELISA in conditioned media from LuECs. It counts as cell-based. To be noted: mouse LuECs. On the procedure: (§1) Testis, lung, or liver ECs were plated (10,000 cells ml^−1) on 12 well dishes coated with 0.1% gelatin and cultured for 24 hours. Conditioned media was harvested at 24 and 48 hours after FGF-2 (2 ng ml^−1, 20 ng ml^−1 and 50 ng ml^−1) treatment and analyzed by ELISA for GDNF (Promega GDNF Emax immunoassay system, #G7621) following the manufacturer's instruction. Statistics was analyzed using Graph Pad Prism. For quantification of Gdnf mRNA, total RNA was isolated from the cells using Direct-zol RNA MiniPrep (Zymo Research) and reverse transcribed using High Capacity cDNA Reverse Transcription Kit (Appliedbiosystems), according to the manufacturer's instructions. All gene expression levels were normalized to GAPDH mRNA levels.
FIG. 2. a. Quantication of GDNF by ELISA in conditioned media from TECs, LuECs and LiECs after treatment with the indicated concentration of FGF-2 for 2 days, n=3. Bar=100 μm. Data are presented as the mean±s.e.m. b. Representative brighteld (BF) and GFP images of 2D cultures of GFP+ SSCs co-cultured with STO cells or TECs plus exogenous GDNF and FGF-2 on days 1 and 8 after seeding. Quantication of stem cell numbers 8 days after co-culture with STO or TECs and the average colony area are shown on the right, n=3. Data are presented as the mean±s.e.m. Bar=100 μm. *P<0.05. c. […]
In general terms: In an ELISA, binding on a coated surface is turned into a signal by an enzyme label.

In another experiment the test system is TECs. Kind of experiment: GDNF ELISA in conditioned media from TECs. To be noted: for GDNF production in conditioned media of TECs after FGF-2 treatment: wild-type mouse TECs. It counts as cell-based, mouse. As to the method: as §1
FIG. 2. a. Quantication of GDNF by ELISA in conditioned media from TECs, LuECs and LiECs after treatment with the indicated concentration of FGF-2 for 2 days, n=3. Bar=100 μm. Data are presented as the mean±s.e.m. b. Representative brighteld (BF) and GFP images of 2D cultures of GFP+ SSCs co-cultured with STO cells or TECs plus exogenous GDNF and FGF-2 on days 1 and 8 after seeding. Quantication of stem cell numbers 8 days after co-culture with STO or TECs and the average colony area are shown on the right, n=3. Data are presented as the mean±s.e.m. Bar=100 μm. *P<0.05. c. Images of 2D co-cultures of GFP+Thy1.2+ SSCs with TECs and immunostained with the germ cell marker DDX4. Inset: bar=10 μm. d. The 3D spheroid co-cultures of GFP+Thy-1.2+ SSCs with TECs or LuECs were generated with Matrigel but no exogenous GDNF or FGF-2. GFP+ Spheroid co-cultures were immunostained with DDX4 (red), Oct4 (white) and DAPI (blue) at day 15. Quantication of the average diameter and total number of colonies is shown on the right; n=3. All data are presented as the mean±s.e.m. Bar=50 m, *P<0.05. **P<0.01. e. Representative BF images merged with GFP images of serially passaged GFP+Thy-1.2+ SSCs co-cultured with TECs at the indicated passage number (1st, 2nd, 3rd or 4th) or day (D). […]

The next experiment deals with NFATc1 and EGR-1. Kind of experiment: Nuclear translocation of NFATc1 and EGR-1 in TECs. It counts as cell-based, mouse. To be noted: TEC, 2 ng/ml FGF-2.

Experimental for NFATc1 and EGR-1: Quantication of nuclear translocation of EGR1 and NFATc1 in TECs after treatment with conditioned media (CM), 2 ng ml-1 FGF-2±CsA. Values are mean±s.e.m. g.

Take fibroblast growth factor-2 [FGF-2]: in the experiment with LuECs, the “GDNF production in conditioned media of LuECs after FGF-2 treatment” value was “not”. The “GDNF expression in media of Fgfr1−/− TECs after FGF2 treatment” value with TECs (Fgfr1−/− TECs compared to Fgfr1+/+ wild-type TECs) is recorded as “no increase in GDNF expression”. The “GDNF production in conditioned media of TECs after FGF-2 treatment” value in the experiment with TECs was “induced significant levels of GDNF”; in the experiment with TECs (listed as FGF2), “stimulated significant GDNF production”. For the same substance, the “nuclear localization of EGR1” value in the experiment on NFATc1 and EGR-1 was “increased”. The “nuclear localization of NFATc1” value with NFATc1 and EGR-1 was “increased”.
